# Data from patent publication US10322995B2, “Substituted cyano cycloalkyl penta-2,4-dienes, cyano cycloalkyl pent-2-en-4-ynes, cyano heterocyclyl penta-2,4-dienes and cyano heterocyclyl pent-2-en-4-ynes as active substances against abiotic plant stress” (BAYER CROPSCIENCE AKTIENGESELLSCHAFT, priority 2014, dated 2019).
# Columns and labels:
# Brassica napus (BRSNS) = experiment: In vivo analyses Part C: drought stress, appearance vs stressed control plants in categories (BRSNS); design: key: 0: no positive effect; 10: slight positive effect; 20: clear positive effect; 30: strong positive effect; conditions: appearance vs stressed control plants after recovery phase, efficacy range of 3-4 pots
# Procedure: Seeds of monocotyledonous and dicotyledonous crop plants were sown in sandy loam in plastic or wood-fibre pots, covered with soil or sand and cultivated in a greenhouse under good growth conditions. The test plants were treated at the early leaf stage (BBCH10-BBCH13). To assure uniform water supply before commencement of stress, the potted plants were supplied with water by dam irrigation prior to substance application. The inventive compounds were first formulated as wettable powders (WP) or dissolved in a solvent mixture. The further dilution was effected with water supplemented with 0.2% wetting agent (e.g. agrotin). The finished spray liquor was sprayed onto the green parts of the plant at an equivalent water application rate of 600 I/ha. Substance application was followed immediately by stress treatment of the plants. For this purpose, the wood-fibre pots were transferred in plastic inserts in order to prevent them from subsequently drying out too quickly. Drought stress was induced by gradual drying out under the following conditions: “Day”: 14 hours with illumination at 26-30° C. “Night”: 10 hours without illumination at 18-20° C. The duration of the respective stress phases was guided mainly by the condition of the stressed control plants. It was ended (by re-irrigating and transfer to a greenhouse with good growth conditions) as soon as irreversible damage was observed on the stressed control plants. The end of the stress phase was followed by an about 4-7-day recovery phase, during which the plants were once again kept under good growth conditions in a greenhouse. The duration of the recovery phase was guided mainly by when the trial plants had attained a state which enabled visual scoring of potential effects, and was therefore variable. Once this juncture had been reached, the appearance of the plants treated with test substances was recorded in comparison to the stressed control plants by the following categories: [table] For each substance and dosage, 3-4 pots were treated and evaluated. BRSNS=Brassica napus
# Zea mays (ZEAMX) = experiment: In vivo analyses Part A: drought stress, visual damage scoring, efficacy EF (ZEAMX); conditions: spray application 250 g/ha, efficacy = reduction in damage intensity
# Procedure: Seeds of monocotyledonous and dicotyledonous crop plants were sown in sandy loam in wood-fibre pots, covered with soil or sand and cultivated in a greenhouse under good growth conditions. The test plants were treated at the early leaf stage (BBCH10-BBCH13). To assure uniform water supply before commencement of stress, the potted plants were supplied with water by dam irrigation prior to substance application. The inventive compounds, formulated in the form of wettable powders (WP), were sprayed onto the green parts of the plants as an aqueous suspension at an equivalent water application rate of 600 I/ha with addition of 0.2% wetting agent (e.g. agrotin). Substance application was followed immediately by stress treatment of the plants. For this purpose, the pots were transferred in plastic inserts in order to prevent them from subsequently drying out too quickly. Drought stress was induced by gradual drying out under the following conditions: “Day”: 14 hours with illumination at 26° C. “Night”: 10 hours without illumination at 18° C. The duration of the respective stress phases was guided mainly by the condition of the stressed control plants. […] Once this juncture was reached, the intensities of damage were scored visually in comparison to untreated, unstressed controls of the same age. The damage intensity was at first assessed in percent. […]
structure (smiles),measurement,setting,value
CCC(C=CC(O)(c1ccccc1)C1(C#N)CC1)=CC(=O)O (racemic) [I.2-201],Effect (BRSNS),Brassica napus (BRSNS); dosage 250 g/ha,10-30
CCOC(=O)/C=C(/C)C#CC(O)(C(C)C)C1(C#N)CC1 (stereo not drawn) [I.1-136],EF [%] (ZEAMX),Zea mays (ZEAMX),>5%
CC/C(C#CC(O)(C1CCC1)C1(C#N)CC1)=C/C(=O)OC (stereo not drawn) [I.1-648],Effect (BRSNS),Brassica napus (BRSNS); dosage 25 g/ha,30
